For data set [1] the following is noted: compared with erythromycin; cited from earlier work.
Data set [2] deals with PMN. In words: Antimicrobial agent uptake by PMN (bioassay). It counts as in vitro ADME. Conditions: intracellular/extracellular concentration, 1 h.

Here are results for 4 molecules from US7271154B2, “Antibiotic conjugates” (Merckle GmbH, priority 2002, dated 2007).

Consider `CC[C@H]1OC(=O)[C@H](C)[C@@H](O[C@H]2C[C@@](C)(OC)[C@@H](O)[C@H](C)O2)[C@H](C)[C@@H](O[C@@H]2O[C@H](C)C[C@H](N(C)C)[C@H]2O)[C@](C)(O)C[C@@H](C)CN(C)[C@H](C)[C@@H](O)[C@]1(C)O` [Azithromycin], for which the “stability in the presence of acids” value in data set [1] is reported as “more stable than erythromycin”.
`C[C@H]1COc2c(N3CCN(C)CC3)c(F)cc3c(=O)c(C(=O)O)cn1c23` [Levofloxacin]: the I/E ratio in data set [2] was 4.8.
Still for that read-out and setting: to `COc1c(N2C[C@@H]3CCCN[C@@H]3C2)c(F)cc2c(=O)c(C(=O)O)cn(C3CC3)c12` [Moxifloxacin] belongs 12.0; to `CC1(C)SC2C(NC(=O)Cc3ccccc3)C(=O)N2C1C(=O)O` (stereo not shown) [Penicillin G, 3,3-Dimethyl-7-oxo-6-phenylacetylamino-4-thia-1-aza-bicyclo[3.2.0]heptane-2-carboxylic acid], 0.16.
